Reference: US10407432B2, “[1,2,4]triazolo[4,3-B]pyridazines for use in the treatment of proliferative diseases” (AstraZeneca AB, priority 2014, dated 2019)

Legend:
[1] = molecular target: T1, BRD4 (1) (Homo sapiens, UniProt O60885); experiment: BROMOscan assay (DiscoverX) BRD4(1); format: binding; parameters: purchased Discoverx (BROMOscan service)
Protocol: (§1) BROMOscan™ Assay (ex Discoverx)
(§2) The ability of the compounds to bind to a bromodomain protein was tested by Discoverx using their proprietory ligand binding site-directed competition assay. Supplied compounds were anonymised.
(§3) The BROMOscan assay is based on the principle that test compounds that bind the bromodomain protein prevent its binding to an immobilized ligand thus reducing the amount of protein captured on a solid support. […] Screening “hits” are identified by measuring the amount of bromodomain captured in test versus control samples by using a quantitative, precise and ultra-sensitive qPCR method that detects the associated DNA label. In a similar manner, dissociation constants (Kds) for test compound-bromodomain interactions are calculated by measuring the amount of bromodomain protein captured on the solid support as a function of the test compound concentration.

[2] = molecular target: T2, BRD4 (2) (Homo sapiens, UniProt O60885); experiment: BROMOscan assay (DiscoverX) BRD4(2); format: binding
T2 construct: purchased Discoverx (BROMOscan service)
Protocol: as §1, §2, §3

[3] = test system: cMyc protein; experiment: Assay monitoring cMyc protein modulation in MM1.S cells (flow cytometry); format: cell-based; settings: Homo sapiens, c-Myc protein level, 16 hours treatment, read-out: MM1.S “MoA” IC50/μM
Protocol: Assay Monitoring cMyc Protein Modulation
Multiple myeloma MM1.S cells were cultured in RPMI-1640 medium containing 10% FBS and 1% L-glutamine under standardized conditions in a humidified incubator (37° C. and 5% CO2). The impact of cMyc protein modulation induced by bromodomain inhibitors was assessed by staining and quantifying c-Myc protein level after compound treatment using a flow cytometer Assay, carried out in 96-well plate format with 200K cells per well. Cells were treated with serially diluted compounds 16 hours before fixing with 2% paraformaldehyde (final concentration) for 10 minutes at 37° C. After being permeablized by ice cold 90% methanol at 4° C. for 30 min, cells were washed, blocked by buffer (0.5% FBS in phosphate-buffered saline (PBS) buffer) for 10 minutes at room temperature, and stained with cMyc antibody for 1 hour (Cell Signaling Technology®5605, 1:200 dilution). Cells were washed and stained by incubating with Alexa-488 conjugated anti-Rabbit IgG (Cell Signaling Technology®#4412, 1:1000 dilution) at RT for 30 minutes. After staining, cells were washed again and fixed with 2% paraformaldehyde in PBS and ready for analysis by BD FACSCalibur™ flow cytometer. Fluorescence geometric mean was calculated through FlowJo (TreeStar Inc), maximal inhibition signal was determined by control compound treatment at high dose across each plate, and minimal inhibition signal was determined by DMSO treatment. IC50 was calculated by fitting the dose-response data points which are normalized against max and min signals as percentage of inhibition using a standard 4-Parameter-Logistic nonlinear regression model.

[4] = test system: MM1.S cells; experiment: Anti-proliferative assay (AlamarBlue) in MM1.S cells; format: cell-based; settings: Homo sapiens, 72 h, 3 days of culture, read-out: MM1.S Antiproliferative GI50/μM
Protocol: Anti-proliferative assay The anti-proliferative effect of the compounds was assessed by AlamarBlue assay in MM1.S cells which were originally derived from a multiple myeloma patient. This assay is based on Resazurin, a non-fluorescent indicator dye converted to bright red-fluorescent resorufin via the reduction reactions of metabolically active cells. The amount of fluorescence produced is proportional to the number of living cells. MM.1S cells are cultured in RPMI-1640 medium (Gibco®) plus 10% Fetal bovine serum (FBS) and 1 mM L-glutamine. 12-24 hours before compound dosing, 90 μL of cell suspension (18,750 cells) was seeded into 96-well microtiter plates (black, flat bottom). On the day of compound dosing, compounds were serially diluted 1:3 in 100% DMSO using columns 2-10 of a 96-well microtiter plate. Column 11 of compound serial plate contained only DMSO. All wells were then further diluted 1:30 in media. 10 μL of compound or DMSO alone in media was added to cell plates columns 2-11 in triplicate. In addition, 1 plate had 10 μL of media added and was developed using alamar blue. Plates developed on the day of compound addition were referred to as Day 0. Dosed plates were cultured 3 days under normal conditions (RPMI-1640 plus 10% FBS and 1 mM L-glutamine) After 3 days of culture, dosed plates are developed using either MTS or alamar blue. For each compound concentration, % net growth was calculated by
(Day 3 dosed well-Average Day 0)/(Average Day 3 DMSO control-Average Day 0). The GI50, the concentration that causes 50% of growth inhibition, of each compound was calculated using the % net growth as defined by National Cancer Institute (NCI).

[5] = molecular target: T1, BRD4 (1); experiment: Alpha-Screen assay, BRD4 BD1; format: binding; parameters: 6His-TEV-BRD4, amino acid residues 42-169, corresponding to the BD1 domain; settings: 6His-TEV-BRD4 residues 42-169 (BD1), H4K5,8,12,16(Ac)4-biotin peptide
Protocol: The ability of the compounds to bind to a bromodomain protein was tested in an AlphaScreen® assay. The assay is based on the interaction between Histidine-tagged bromodomain protein which can bind to Nickel-chelate donor beads, and a Biotinylated acetyl lysine peptide corresponding to a histone amino acid sequence, which can bind to streptavidin-conjugated acceptor beads. The protein-peptide interaction can be detected by light emission at 520-620 nm. In the presence of compounds which bind to BRD4 a lower signal is observed as the protein-peptide interaction is reduced. • 1. The assay was performed as follows: —Greiner BioOne (cat no. 784075) compound plates were used. Compounds were prepared using the Labcyte Echo Acoustic Dispenser with compounds in a final volume of 40 nl per well normalised to 0.5% (v/v) DMSO under final assay conditions. Compounds were tested in 12 point singlicate concentration response format. • 2. 4 μl of BRD4 protein (6His-TEV-BRD4, amino acid residues 42-169, corresponding to the BD1 domain) (final assay concentration=50 nM) per well was added using the Beckman Coulter BioRAPTR® Flying Reagent Dispensor Microfluidic Workstation. • 3. Incubated for 30 minutes at room temperature. • 4. Added 4 μl of acetyl lysine peptide (H4K5,8,12,16(Ac)4-biotin:(NH2-) YSGRG(K-Ac)GG(K-Ac)GLG(K-Ac)GGA(K-Ac)RHR(K-Biotin)(—COOH)) (final assay concentration=50 nM) per well using the Beckman Coulter BioRAPTR® Flying Reagent Dispensor Microfluidic Workstation. • 5. Incubated for 30 minutes at room temperature. • 6. Added 4 μl of Nickel & Streptavidin-bead solution pre-mixed (beads supplied by Perkin Elmer) per well using the BioRaptr as before (final assay concentration=4 μg/ml). Kept plates in the dark after addition. • 7. Incubated for 60 minutes at room temperature keeping the assay plate in the dark • 8. Plates were then read using the Perkin Elmer Envision plate reader, laser excitation at 680 nm and emission detected at 520-620 nm. • 9. Data was analysed using Genedata software and IC50 values calculated.

[6] = pKa determination
[7] = molecular target: T3, BRD3 (2) (Homo sapiens, UniProt Q15059); experiment: BROMOscan assay (DiscoverX) BRD3(2); format: binding
T3 construct: purchased Discoverx (BROMOscan service)
Protocol: as §1, §2, §3

[8] = molecular target: T4, BRDT (2) (Homo sapiens, UniProt Q58F21); experiment: BROMOscan assay (DiscoverX) BRDT(2); format: binding
T4 construct: purchased Discoverx (BROMOscan service)
Protocol: as §1, §2, §3

[9] = molecular target: T5, BRD2 (2) (Homo sapiens, UniProt P25440); experiment: BROMOscan assay (DiscoverX) BRD2(2); format: binding
T5 construct: purchased Discoverx (BROMOscan service)
Protocol: as §1, §2, §3

[10] = molecular target: T6, BRD3 (1) (Homo sapiens, UniProt Q15059); experiment: BROMOscan assay (DiscoverX) BRD3(1); format: binding
T6 construct: purchased Discoverx (BROMOscan service)
Protocol: as §1, §2, §3

[11] = molecular target: T7, BRDT (1) (Homo sapiens, UniProt Q58F21); experiment: BROMOscan assay (DiscoverX) BRDT(1); format: binding
T7 construct: purchased Discoverx (BROMOscan service)
Protocol: as §1, §2, §3

[12] = test system: MV-4-11 cells; experiment: MV-4-11 xenograft model; format: in vivo, mouse; settings: CB17 SCID mice, 10 mg/kg PO qd for 21 days, FIG. 5
Protocol: Compound A was also investigated in a xenograft model as described below.
Female CB17 SCID mice aged 6 to 8 weeks were obtained from Charles River Laboratories (Wilmington, Mass.) and maintained under specific-pathogen-free conditions in an AAALAC (Association for Assessment and Accreditation of Laboratory Animal Care)—accredited facility. Irradiated food and autoclaved water were provided ad libitum.
MV-4-11 cells ([…]) were resuspended in 0.1 ml of medium without serum and Matrigel (Becton Dickinson) at a 1:1 ratio. Cells (10^7/mouse) were injected subcutaneouly into the right flank of mice. Tumors were allowed to grow until they reached an average volume of 200 mm^3 for efficacy and then the mice were randomized into groups of 8. Compound A was solubilized in 0.5% HPMC/0.1% Tween80 for dosing. For efficacy, either vehicle or Compound A was administered PO once a day (qd) for 21 days at 10 mg/kg (mpk). Body weight and tumour volume were measured twice a week for 21 days.

[13] = physchem
[14] = molecular target: T8, BRD2 (1) (Homo sapiens, UniProt P25440); experiment: BROMOscan assay (DiscoverX) BRD2(1); format: binding
T8 construct: purchased Discoverx (BROMOscan service)
Protocol: as §1, §2, §3

[15] = Hygroscopicity of co-crystal versus free base; format: physicochemical
[16] = Stability under temperature and humidity conditions; format: physicochemical; settings: exposed to range of temperature and humidity conditions

T6 sequence (Q15059 34-140 limits assumed): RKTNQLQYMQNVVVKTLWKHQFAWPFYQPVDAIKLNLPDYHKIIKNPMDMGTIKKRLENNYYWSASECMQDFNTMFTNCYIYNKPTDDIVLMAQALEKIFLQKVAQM
T3 sequence (Q15059 306-415 limits assumed): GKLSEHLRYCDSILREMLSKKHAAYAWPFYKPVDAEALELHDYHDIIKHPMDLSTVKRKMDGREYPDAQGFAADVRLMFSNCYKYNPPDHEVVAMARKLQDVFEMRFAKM
T5 sequence (P25440 344-453 limits assumed): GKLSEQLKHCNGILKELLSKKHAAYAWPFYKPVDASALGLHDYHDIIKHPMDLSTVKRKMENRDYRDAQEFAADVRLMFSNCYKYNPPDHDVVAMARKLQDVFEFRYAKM
T8 sequence (P25440 74-180 limits assumed): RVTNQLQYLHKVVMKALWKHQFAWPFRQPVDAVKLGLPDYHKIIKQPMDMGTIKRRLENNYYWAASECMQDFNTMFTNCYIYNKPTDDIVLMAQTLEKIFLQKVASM

| SMILES | Kd [1] | Kd [2] | IC50 [3] | GI50 [4] | IC50 [5] | pKa [6] | Kd [7] | Kd [8] | Kd [9] | Kd [10] | Kd [11] | Tumour growth inhibition (tumour volume) [12] | pKa [13] | Kd [14] | Hygroscopicity compared to Compound A free base [15] | Stability compared to Compound A free base [16] |
| --- | --- | --- | --- | --- | --- | --- | --- | --- | --- | --- | --- | --- | --- | --- | --- | --- |
| COc1nnc2ccc(N3CCC(c4ccc(OCCCN5[C@H](C)CN(C(C)=O)C[C@@H]5C)cc4)CC3)nn12 [Example 4, 1-((3R,5S)-4-(3-(4-(1-(3-methoxy-[1,2,4]triazolo[4,3-b]pyridazin-6-yl)piperidin-4-yl)phenoxy)propyl)-3,5-dimethylpiperazin-1-yl)ethanone] | 0.057 µM | 0.25 µM | 0.012 µM | 0.0051 µM | 0.14 µM |  |  |  |  |  |  |  |  |  |  |  |
| O=C(O)c1ccc2cc(O)ccc2c1 [6-hydroxy-2-naphthoic acid] |  |  |  |  |  | 4.3 |  |  |  |  |  |  |  |  |  |  |
| COc1nnc2ccc(N3CCC(c4ccc(OCCN5CCN(C)C(=O)[C@H]5C)cc4)CC3)nn12 [Example 1, (R)-4-(2-(4-(1-(3-methoxy-[1,2,4]triazolo[4,3-b]pyridazin-6-yl)piperidin-4-yl)phenoxy)ethyl)-1,3-dimethylpiperazin-2-one] | 0.047 µM | 0.13 µM | 0.011 µM | 0.0049 µM | 0.12 µM |  | 0.43 µM | 0.45 µM | 0.28 µM | 0.064 µM | 0.095 µM | Tumour Growth Inhibition | < 1 | 0.1 µM |  |  |
| COc1nnc2ccc(N3CCC(c4ccc(OCCN5CCN(C)C(=O)[C@H]5C)cc4)CC3)nn12.O=C(O)c1ccc2cc(O)ccc2c1 [(R)-4-(2-(4-(1-(3-methoxy-[1,2,4]triazolo[4,3-b]pyridazin-6-yl)piperidin-4-yl)phenoxy)ethyl)-1,3-dimethylpiperazin-2-one:6-hydroxy-2-naphthoic acid (1:1) co-crystal] |  |  |  |  |  |  |  |  |  |  |  |  |  |  | significantly less hydroscopic than Compound A free base | more stable than Compound A free base |
| COc1nnc2ccc(N3CCC(c4ccc(OCCCN5CCN(C)C(=O)[C@H]5C)cc4)CC3)nn12 [Example 3, (R)-4-(3-(4-(1-(3-methoxy-[1,2,4]triazolo[4,3-b]pyridazin-6-yl)piperidin-4-yl)phenoxy)propyl)-1,3-dimethylpiperazin-2-one] | 0.11 µM | 0.34 µM | 0.025 µM | 0.0075 µM | 0.3 µM |  | 0.67 µM | 0.99 µM | 0.53 µM | 0.11 µM | 0.093 µM |  |  | 0.16 µM |  |  |
| COc1nnc2ccc(N3CCC(c4ccc(OCCN5[C@H](C)CN(C(C)=O)C[C@@H]5C)cc4)CC3)nn12 [Example 2, 1-((3S,5R)-4-(2-(4-(1-(3-methoxy-[1,2,4]triazolo[4,3-b]pyridazin-6-yl)piperidin-4-yl)phenoxy)ethyl)-3,5-dimethylpiperazin-1-yl)ethanone] | 0.026 µM | 0.29 µM | < 0.002 µM | < 0.002 µM | 0.035 µM |  | 0.92 µM | 1.1 µM | 0.35 µM | 0.057 µM | 0.035 µM |  |  | 0.083 µM |  |  |
